Values quoted from earlier work as cited in patent US6239177A, “Tranilast-containing preparation for external application and method of producing the same” (Lead Chemical Co., Ltd., priority 1996, dated 2001).
Read-outs that look alike come from different tables or passages of the source.

How the values were obtained:
[1] = test system: carrageenan-induced granulation tissue; settings: for drug concentration in the skin tissue: one hour after final administration, 60 min
[2] = test system: keloid and hypertrophic scar; settings: Ichikawa 1992; Suzawa 1992

COc1ccc(C=CC(=O)Nc2ccccc2C(=O)O)cc1OC [tranilast, N-(3,4-dimethoxycinnamoyl)-anthranilic acid]
drug concentration in the skin tissue ([1]; oral 50 mg/kg for consecutive 14 days): 4.2 ± 0.4 µg/g | drug concentration in the skin tissue ([1]; oral 100 mg/kg for consecutive 14 days): 10.3 ± 0.9 µg/g | drug concentration in the skin tissue ([1]; oral 200 mg/kg for consecutive 14 days): 23.17 ± 1.7 µg/g | inhibitory effect (carrageenan-induced granulation tissue) ([1]; oral 50, 100, and 200 mg/kg for consecutive 14 days): dose-dependent inhibitory effect was observed | solubility in dimethyl formamide, pyridine, dioxane, and acetone (dimethyl formamide, pyridine, dioxane, acetone): soluble | solubility in a kind of fatty acid and its ester, animal and vegetable oils and fats, terpene compounds, and alcohols (fatty acids/esters, oils and fats, terpenes, alcohols): can be solved to some extent | solubility in methanol, ethanol, ethyl acetate (methanol, ethanol, ethyl acetate): hardly soluble | solubility in water: extremely sparingly soluble | solubility in water (listed as Tranilast): sparingly soluble | pharmaceutical effect on keloid and hypertrophic scar [2]: excellent pharmaceutical effect
